Results from article PMC3742241, “Novel Hybrid Virtual Screening Protocol Based on Molecular Docking and Structure-Based Pharmacophore for Discovery of Methionyl-tRNA Synthetase Inhibitors as Antibacterial Agents” (International Journal of Molecular Sciences, 2013).
≈ marks a conversion by molar mass, not a printed value.

Tests used:
[1] = In vitro cytotoxicity assay (MTT); assay type: cell-based, Human; settings: human; HEK293 cells; 48 h; MTT
Description: (§1) The 15 final hit compounds were purchased and screened for preliminary in vitro antibacterial activity against our five ATCC-bacterial strain panel (Staphylococcus aureus ATCC 29213, Methicillin-resistant Staphylococcus aureus ATCC 43300, E. coli ATCC 25922, Pseudomonas aeruginosa ATCC 27853 and Klebsiella pneumoniae ATCC 700603) by using the standard broth dilution method. […] All of the 15 final hit compounds were tested against HEK293 cell lines to avoid potential cytotoxicity of normal human cells. […] Further chemical optimization is being performed to better understand the key residues for activity and selectivity.
(§2) Human Embryonic Kidney 293 cell line (HEK293) was acquired from ATCC. The cells were cultured in DMEM medium (Gibco-BRL, Invitrogen Co. Ltd., Carlsbad, CA, USA) supplemented with 10% (v/v) fetal bovine serum plus 100 μg/mL amikacin. The cells were maintained in a 37 °C humidified incubator with 5% CO2 atmosphere. Analysis of in vitro cytotoxicity was performed in the presence of compounds or blank solvent on cell lines seeded in 96-well plates at the density of 2 × 10^3 cells/well in serum-containing media. After 24 h incubation at 37 °C, the cells were treated with different concentrations of compounds along with a blank solvent. The cells were incubated in these conditions for 48 h. The cell viability was assessed with the 3-(4,5-dimethylthiazol-2-yl)-2,5-diphenyltetrazolium bromide (MTT) method, as previously described.

HEK293 cells = experiment: In vitro cytotoxicity assay (MTT); assay type: cell-based, Human
Description: as §1, §2

[2] = test system: Pseudomonas aeruginosa ATCC 27853; experiment: In vitro MIC, broth microdilution, P. aeruginosa; assay type: cell-based; settings: ATCC27853, 5 × 10^5 CFU/mL, 16 h at 37 °C, read-out: MIC, Gram-negative bacteria, P. aeruginosa
Description: as §1
(§3) MICs were determined using a microdilution method with Muellere Hinton Broth (MHB) for Staphylococci and Lennox Broth (LB) for Enterococci, following the National Committee for Clinical Laboratory Standards (NCCLS) (now called the Clinical Laboratory Standards Institute [CLSI]). The stock solutions of the test compounds were diluted to give a two-fold series, with final chemical concentrations ranging from […].

[3] = test system: Methicillin-resistant Staphylococcus aureus ATCC 43300; experiment: In vitro MIC, broth microdilution, MRSA; assay type: cell-based; settings: 5 × 10^5 CFU/mL, 16 h at 37 °C, read-out: MIC, Gram-positive bacteria, MRSA
Description: as §1, §3

[4] = test system: Staphylococcus aureus ATCC 29213; experiment: In vitro MIC, broth microdilution, S. aureus; assay type: cell-based; settings: ATCC29213, 5 × 10^5 CFU/mL, 16 h at 37 °C, read-out: MIC, Gram-positive bacteria, S. aureus
Description: as §1, §3

[5] = test system: Klebsiella pneumoniae ATCC 700603; experiment: In vitro MIC, broth microdilution, K. pneumoniae; assay type: cell-based; settings: ATCC700603, 5 × 10^5 CFU/mL, 16 h at 37 °C, read-out: MIC, Gram-negative bacteria, K. pneumoniae
Description: as §1, §3

[6] = test system: Escherichia coli ATCC 25922; experiment: In vitro MIC, broth microdilution, E. coli; assay type: cell-based; settings: ATCC25922, 5 × 10^5 CFU/mL, 16 h at 37 °C, read-out: MIC, Gram-negative bacteria, E. coli
Description: as §1, §3

Compound | MIC [2] [µg/mL] | MIC [3] [µg/mL] | MIC [4] [µg/mL] | MIC [5] [µg/mL] | MIC [6] [µg/mL] | IC50 at 48 h [1] [µM] | Cytotoxicity to HEK293 cells (in words) (HEK293 cells)
COc1ccc(C(=O)N2CCN(CCNC(=O)C(=O)Nc3ccccc3)CC2)cc1 [ZINC04380079] | 64 (≈ 156 µM) | 64 (≈ 156 µM) | 32 (≈ 78 µM) | 64 (≈ 156 µM) | 64 (≈ 156 µM) | 6.84 | –
COc1cc(CNCCc2ccc(S(N)(=O)=O)cc2)ccc1OCC(=O)NC(C)(C)C [ZINC19922703] | 32 (≈ 71.2 µM) | 64 (≈ 142 µM) | 32 (≈ 71.2 µM) | 64 (≈ 142 µM) | 64 (≈ 142 µM) | > 20 | –
O=C(NCCN1CCN(C(=O)c2ccc(Cl)cc2Cl)CC1)C(=O)Nc1ccc(Br)cc1 [ZINC08451958] | 64 (≈ 121 µM) | 32 (≈ 60.6 µM) | 32 (≈ 60.6 µM) | 64 (≈ 121 µM) | 64 (≈ 121 µM) | > 20 | –
CC1CCCc2sc3nc(SCC(=O)NC(=O)Nc4ccccc4)n(N)c(=O)c3c21 (centres unmarked) [ZINC19797059] | 64 (≈ 144 µM) | 32 (≈ 72.1 µM) | 32 (≈ 72.1 µM) | 64 (≈ 144 µM) | 64 (≈ 144 µM) | > 20 | –
Cc1ccc2c(c1)c1c3n2CCN(CC(=O)CNNC(=O)c2ccccc2)C3CCC1 (centres unmarked) [ZINC08430843] | 32 (≈ 76.8 µM) | 32 (≈ 76.8 µM) | 16 (≈ 38.4 µM) | 64 (≈ 154 µM) | 64 (≈ 154 µM) | > 20 | –
CCCC[n+]1c(N)c(C(=O)NCc2ccc(C)cc2)cc2c(=O)n3cccc(C)c3nc21 [ZINC02424508] | 64 | 32 | 16 | 64 | 16 | > 20 | –

Compounds with a lower MIC [2], results first:

MIC [2] [µg/mL] | MIC [3] [µg/mL] | MIC [4] [µg/mL] | MIC [5] [µg/mL] | MIC [6] [µg/mL] | Compound | IC50 at 48 h [1] [µM] | Cytotoxicity to HEK293 cells (in words) (HEK293 cells)
8 (≈ 16.8 µM) | 4 (≈ 8.38 µM) | 4 (≈ 8.38 µM) | 64 (≈ 134 µM) | 16 (≈ 33.5 µM) | CCc1ccc(NC(=O)C(=O)NCCN2CCN(C(=O)c3ccc(Cl)cc3Cl)CC2)cc1 [ZINC06843697] | > 20 | non-cytotoxicity
16 (≈ 41.1 µM) | 16 (≈ 41.1 µM) | 4 (≈ 10.3 µM) | 32 (≈ 82.2 µM) | 8 (≈ 20.5 µM) | CNC(=O)NC(=O)CSc1nc2sc(-c3ccccc3)cc2c(=O)n1N [ZINC02181060] | 15.4 | –
16 (≈ 36.1 µM) | 64 (≈ 144 µM) | 32 (≈ 72.1 µM) | 64 (≈ 144 µM) | 64 (≈ 144 µM) | CC1CCCc2sc3c(=O)n(N)c(SCC(=O)NC(=O)Nc4ccccc4)nc3c21 (centres unmarked) [ZINC19797060] | > 20 | –
8 (≈ 16.9 µM) | 16 (≈ 33.8 µM) | 8 (≈ 16.9 µM) | 32 (≈ 67.6 µM) | 16 (≈ 33.8 µM) | Cc1ccccc1C(=O)N1CCN(CCNC(=O)C(=O)Nc2ccc(Br)cc2)CC1 [ZINC08452043] | 10.2 | –
16 (≈ 43.3 µM) | 64 (≈ 173 µM) | 32 (≈ 86.6 µM) | 64 (≈ 173 µM) | 32 (≈ 86.6 µM) | Cc1ccc2ccc([C@H](Nc3ccccn3)c3ccc(C)c(C)c3)c(O)c2n1 [ZINC02086896] | 3.15 | –
4 (≈ 11.2 µM) | 16 (≈ 44.6 µM) | 8 (≈ 22.3 µM) | 16 (≈ 44.6 µM) | 32 (≈ 89.3 µM) | CC1(C)Cc2c(ccc3ccccc23)C(NNC(=O)c2cccc(N)c2)=N1 [ZINC00729256] | > 20 | non-cytotoxicity
16 (≈ 39.7 µM) | 64 (≈ 159 µM) | 64 (≈ 159 µM) | 64 (≈ 159 µM) | 64 (≈ 159 µM) | Cc1sc(NC(=O)c2ccco2)c(C(Nc2ccccn2)c2ccccc2)c1C (centres unmarked) [ZINC02709613] | > 20 | –
16 | 32 | 32 | 64 | 32 | CCCCCCCC[n+]1cccc(C(=O)N2CCNc3nc(NC(=O)C(C)C)[nH]c(=O)c32)c1 [ZINC08384332] | > 20 | –
16 (≈ 39.8 µM) | 64 (≈ 159 µM) | 64 (≈ 159 µM) | 32 (≈ 79.7 µM) | 64 (≈ 159 µM) | CN(C)CCCNC(=O)c1ccccc1NC(=O)c1ccc(-c2ccccc2)cc1 [ZINC10312776] | > 20 | –
